# From patent US10736906B2, “Method to enhance tissue regeneration” (CHILDREN'S MEDICAL CENTER CORPORATION, priority 2006, dated 2020)
# “Also recorded” adds a separate entry of the source.
# Experiments:
# wnt activity = wnt activity in TOP:dGFP wnt reporter zebrafish embryos (in situ hybridization and qPCR for GFP); format: in vivo; conditions: for wnt activity in the developing brain, liver and gut: developing zebrafish, TOP:dGFP
# Description: An embodiment of the present invention provides for manipulation of the genetic interaction between PGE2 and wnt/β-catenin signaling, which regulates developmental specification of stem cells and regeneration. Briefly, prostaglandin (PG) E2 is required for the formation and function of hematopoietic stem cells (HSCs) in vivo, yet its mechanism of action in these cells is not completely understood.
# The following RNA probes were used to detect alterations in endodermal and liver development: GFP, LFABP, sterol carrier protein, transferrin, foxA3, insulin, trypsin, and IFABP. Changes in expression compared to wild-type controls are reported as the # altered/# scored per genotype; a minimum of three independent experiments were conducted per analysis.
# [1] = system: stem and progenitor cell population; assay: hematopoietic recovery following irradiation in the adult zebrafish (kidney marrow); format: in vivo; conditions: ten days post irradiation; wnt8 induction 24-36 hours post irradiation
# Protocol: (§1) It has been hypothesized that wnt activation regulates HSC self-renewal and repopulation. Wnt activation is also thought to be involved in carcinogenesis, however, making the concept of direct enhancement of wnt signaling problematic. Whether regulation of wnt activity by prostaglandin can effectively modulate HSC homeostasis in the adult, was determined by observing hematopoietic recovery following irradiation in the zebrafish. […] APCMin/+ mice have elevated β-catenin levels due to loss of APC function in the destruction complex.
# bone marrow = bone marrow recovery following 5-FU chemical injury in APCMin/+ mice; format: in vivo; conditions: 1 mg/kg every 48 hrs, after 5-FU
# Protocol: as §1
# [2] = system: cKit+Sca1+ Lineage- (KSL) bone marrow cells; assay: murine transplantation assay with purified HSCs, CFU-S12; format: in vivo, mice; conditions: concurrent administration with BIO; indomethacin 1 mg/kg and 2.5 mg/kg
# Protocol: To assess whether prostaglandin levels regulate wnt activity in HSCs, murine transplantation assays were performed utilizing purified HSCs. FACS-isolated cKit+Sca1+ Lineage—(KSL) bone marrow cells were transplanted into lethally irradiated recipients.
# [3] = system: endodermal and hepatic progenitor cells; assay: endodermal progenitors (foxA3) and liver size (lfabp) in zebrafish embryos, in situ hybridization; format: in vivo
# Description: To determine whether the interaction of PGE2 and wnt/β-catenin signaling is a conserved regulator of stem and progenitor cell populations in other tissues, endodermal and hepatic progenitor cells were examined during zebrafish development. […] ( 51/56), as detected by expression of liver fatty acid binding protein (lfabp). […] This finding is supported by the detection of various components of PGE2 signaling in foxA3 positive cells.
# The APC mutant zebrafish to model constitutive activation of the wnt signaling pathway, was used to characterize the effects of the wnt/PG interaction in foxA3+ endodermal progenitors at 48 hpf. APC+/− embryos have enhanced foxA3 expression and an increased liver bud ( 88/93) as well as increased liver size ( 68/75) compared to wild-type siblings. […] Both cyclinD1 and cmyc were co-regulated by wnt and prostaglandin during development which may indicate that PGE2 exerts its effects on stem cells through enhanced cell cycling and proliferation.
# In situ hybridization: Paraformaldehyde (PFA)-fixed embryos were processed for in situ hybridization using standard zebrafish protocols such as those found on the internet at, for example, ZFIN: The Zebrafish Model Organism Database (hosted by the Univ. Oregon, Eugene, Oreg.). The following RNA probes were used to detect alterations in endodermal and liver development: GFP, LFABP, sterol carrier protein, transferrin, foxA3, insulin, trypsin, and IFABP. Changes in expression compared to wild-type controls are reported as the # altered/# scored per genotype; a minimum of three independent experiments were conducted per analysis.
# adult zebrafish liver = assay: liver regeneration and wound healing after 1/3 partial hepatectomy in adult zebrafish; format: in vivo
# Description: Following ⅓ partial hepatectomy, the zebrafish liver regenerates within five days to seven days.
# As many molecular pathways controlling embryonic development mediate tissue homeostasis in the adult, the effects of prostaglandin signaling during liver regeneration were examined. […] Fish were revived and allowed to heal in fish water.
# To test the requirement of functional prostaglandin signaling during regeneration, fish were exposed to the dual-specific cox inhibitor, indomethacin, from hour 6 to hour 18 following partial hepatectomy.
# Liver Resection: Folling administration of tricaine anesthetic, ⅓ partial hepaectomy of the adult zebrafish liver was performed under brightfield imaging on a dissection microscope. An incision was made using microdissection scissors posterior to the heart on the left lateral portion of the abdomen.
# β-catenin = assay: partial hepatectomy in wild-type and APCMin/+ mice (IHC, western blot, BrdU); format: in vivo
# Description: Here, APC mutation caused increased total and nuclear β-catenin levels, particularly in the periportal region. […] These findings were confirmed by western blot. β-catenin may cause increased cell proliferation through its target cyclin D1.
# Additionally, the present invention provides the first example that the activation of wnt/β-catenin signaling can enhance the rate of liver regeneration. […] Furthermore, the regeneratice advantage is evolutionarily conserved following hepatectomy in APCMin/+ mice. (Murine liver resections were performed as described in Green & Puder, 16 J. Investigational Surgery 99-102 (2003). Thus, the present invention provides for the manipulation of the wnt/β-catenin pathway as a way to enhance liver regeneration in patients, either after liver resection or during recovery from acute liver failure induced by toxins such as acetaminophen.
# liver tumor = assay: zebrafish DMBA liver tumor model, ultrasound biomicroscopy; format: in vivo
# Description: Although zebrafish are a valuable vertebrate model to study carcinogenesis, noninvasive imaging remains challenging because adult fish are not transparent. Tumors can be readily detected in vivo, however, using high-resolution microscopic ultrasound. This technique facilitates tissue perfusion calculations, cellular aspirates, tumor progression analysis, and responses to treatment. Ultrasound biomicroscopy allows longitudinal studies of tumor development and real-time assessment of therapeutic effects in the zebrafish model. The visualization techniques employed herein are described by Goessling et al., 4(7) Nature Methods 551-53 (2007). […] Tumor occurrence was monitored over about five months. Tumors were identified by ultrasound biomicroscopy. The cancerous fish were then treated with indomethacin for twelve hours over night, every three days for one month, and the tumors visualized as described. Goessling et al., 2007. […] After one month of drug treatment, the fish appeared healthy, but were sacrificed to confirm the presence of cancer by histology. […] In another experiment, detailed in FIG. 10B and FIG. 10C, fish were treated every week for tumor prevention. Here, treatment with the carcinogen led to liver tumors in wild-type fish, and to twice as many tumors in APC+/− mutant fish.
structure (smiles),measurement,setting,value
COc1ccc2c(c1)c(CC(=O)O)c(C)n2C(=O)c1ccc(Cl)cc1 [indomethacin],"wnt activity in the developing brain, liver and gut",wnt activity,diminished wnt activity
same,"wnt activity in the developing brain, liver and gut",wnt activity; listed as indomethicin,virtual absence of wnt signaling
same,wnt activity abolished in the AGM and GFP expression markedly decreased globally (# altered/# scored),wnt activity; indomethacin 10 μM,72/87
same,effect on wnt8-induced 2.5-fold increase in stem and progenitor cell population,[1],significantly diminished
same,effect on the proliferative advantage (bone marrow recovery) in APCMin/+ mice,bone marrow,markedly diminished the proliferative advantage
same,effect on BIO-enhanced CFU-S number,[2],blocks this effect; also recorded: diminished CFU-S number back to baseline levels
same,decrease in liver size (# altered/# scored),[3]; APC+/− embryos,61/67
same,decrease in foxA3 positive progenitor cells (# altered/# scored),"[3]; APC+/− embryos, 48 hpf",33/39
same,decreased foxA3 expression (# altered/# scored),[3]; wild-type embryos,67/71
same,"smaller liver, lfabp expression (# altered/# scored)","[3]; wild-type embryos, 72 h.p.f.",51/56
same,liver size / liver development compared to controls,"[3]; zebrafish embryos, by 72 hours post-fertilization",marked reduction in liver size
same,liver architecture,adult zebrafish liver; at resection margin and throughout un-injured portions,altered architecture of the liver
same,liver regrowth compared to controls,adult zebrafish liver; exposure following resection (indomethacin hour 6 to 18; day 1 and day 3),significantly reduced liver re-growth
same,complete regeneration of the liver,adult zebrafish liver; indomethacin: by day 5 post-resection,failed to regenerate fully
same,wound healing at the incision site,adult zebrafish liver; skin wounds following partial hepatectomy,severely inhibited; also recorded: prohibited wound healing
same,regenerative index,"adult zebrafish liver; treatment 6 to 18 hours post resection, wild-type and APC mutant fish",significantly diminished
same,"β-catenin, immunohistochemistry post resection",adult zebrafish liver; wild-type and APC+/− fish,decrease in overall β-catenin levels
same,β-catenin levels,"β-catenin; 2.5 mg/kg bid sq, both genotypes",decreased β-catenin levels significantly
same,Cyclin D1 levels and cell proliferation (BrdU incorporation),β-catenin; APCMin/+ mice,markedly diminished
same,"P-GSK3b (serine 9), IHC","β-catenin; wild-type and APC+/− mice, confirmed by western blot",decreased amounts
same,"solid portion of the tumor, ultrasound",liver tumor; after six treatments,decreased in size
same,"tumor size, ultrasound",liver tumor; after ten treatments,shrunk substantially
same,"tumor size, ultrasound",liver tumor; after three treatments (12 h overnight every three days),tumor size increased
same,liver tumor formation (prevention),"liver tumor; weekly treatment, wild-type and especially APC+/− fish",decreased tumor formation
